The values below come from patent US7943619B2, “Isoxazolo-pyridazine derivatives” (priority 2007, dated 2011).

The assay deals with human GABA A receptor α5β3γ2 (α5 subunit) (Homo sapiens, UniProt P18507+P31644). The assay can be described thus: biochemical. In kind it is binding. The settings on record: competition for [3H]flumazenil binding, HEK293 cells transiently expressing human receptors; means of two determinations; read-out: hKi. Here is the method: The affinity of compounds at GABA A receptor subtypes was measured by competition for [3H]flumazenil (85 Ci/mmol; Roche) binding to HEK293 cells expressing rat (stably transfected) or human (transiently transfected) receptors of composition α1β3γ2, α2β3γ2, α3β3γ2 and α5β3γ2.
Chain of human GABA A receptor α5β3γ2 (α5 subunit) (P31644 32-462): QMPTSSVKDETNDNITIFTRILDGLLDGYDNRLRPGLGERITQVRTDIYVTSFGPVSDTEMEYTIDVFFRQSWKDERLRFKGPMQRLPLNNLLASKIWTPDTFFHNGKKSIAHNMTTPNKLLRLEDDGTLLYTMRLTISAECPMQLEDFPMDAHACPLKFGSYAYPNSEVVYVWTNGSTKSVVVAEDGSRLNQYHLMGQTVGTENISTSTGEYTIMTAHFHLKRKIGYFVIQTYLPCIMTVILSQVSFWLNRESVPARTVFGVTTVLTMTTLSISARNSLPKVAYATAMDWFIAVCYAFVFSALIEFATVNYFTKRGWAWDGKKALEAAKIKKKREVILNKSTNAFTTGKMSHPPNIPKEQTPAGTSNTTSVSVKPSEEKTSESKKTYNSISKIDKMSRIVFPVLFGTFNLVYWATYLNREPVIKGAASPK
Chain of human GABA A receptor α5β3γ2 (α5 subunit) (P28472 26-473 partner): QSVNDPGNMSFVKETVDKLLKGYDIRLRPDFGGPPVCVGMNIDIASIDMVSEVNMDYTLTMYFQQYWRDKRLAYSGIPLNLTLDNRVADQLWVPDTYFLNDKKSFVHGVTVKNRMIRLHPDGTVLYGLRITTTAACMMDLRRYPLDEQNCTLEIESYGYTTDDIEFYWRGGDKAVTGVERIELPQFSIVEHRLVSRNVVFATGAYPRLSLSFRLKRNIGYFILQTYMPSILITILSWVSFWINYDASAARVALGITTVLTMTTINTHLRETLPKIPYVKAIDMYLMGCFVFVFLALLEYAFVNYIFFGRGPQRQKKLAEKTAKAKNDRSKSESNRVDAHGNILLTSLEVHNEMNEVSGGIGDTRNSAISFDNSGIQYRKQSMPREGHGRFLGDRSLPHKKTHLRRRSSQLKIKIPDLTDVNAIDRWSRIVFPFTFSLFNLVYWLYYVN
Chain of human GABA A receptor α5β3γ2 (α5 subunit) (P18507 40-475): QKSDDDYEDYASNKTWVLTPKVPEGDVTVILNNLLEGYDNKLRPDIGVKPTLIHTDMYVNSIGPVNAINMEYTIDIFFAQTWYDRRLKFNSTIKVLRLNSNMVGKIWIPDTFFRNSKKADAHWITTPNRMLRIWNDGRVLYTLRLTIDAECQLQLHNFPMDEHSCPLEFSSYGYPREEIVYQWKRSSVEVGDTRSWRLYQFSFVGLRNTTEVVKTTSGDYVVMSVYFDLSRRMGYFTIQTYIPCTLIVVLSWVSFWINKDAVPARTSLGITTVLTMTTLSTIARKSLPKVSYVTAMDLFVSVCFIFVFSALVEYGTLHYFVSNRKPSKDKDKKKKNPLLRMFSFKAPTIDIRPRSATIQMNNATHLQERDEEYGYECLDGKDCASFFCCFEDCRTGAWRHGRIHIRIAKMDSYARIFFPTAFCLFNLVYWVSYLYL
Cell pellets were suspended in Krebs-tris buffer (4.8 mM KCl, 1.2 mM CaCl2, 1.2 mM MgCl2, 120 mM NaCl, 15 mM Tris; pH 7.5; binding assay buffer), homogenized by polytron for ca. 20 sec on ice and centrifuged for 60 min at 4° C. (50000 g; Sorvall, rotor: SM24=20000 rpm). The cell pellets were resuspended in Krebs-tris buffer and homogenized by polytron for ca. 15 sec on ice. Protein was measured (Bradford method, Bio-Rad) and aliquots of 1 mL were prepared and stored at −80° C.
Assays were incubated to equilibrium for 1 hour at 4° C. and harvested onto GF/C uni-filters (Packard) by filtration using a Packard harvester and washing with ice-cold wash buffer (50 mM Tris; pH 7.5). After drying, filter-retained radioactivity was detected by liquid scintillation counting. Ki values were calculated using Excel-Fit (Microsoft) and are the means of two determinations.

The structures appear in SMILES notation.

`CNC(=O)c1ccc(OCc2c(-c3ccncc3)noc2C)nn1` [Example 108, 6-(5-Methyl-3-pyridin-4-yl-isoxazol-4-ylmethoxy)-pyridazine-3-carboxylic acid methylamide]: the Ki stood at 9 nM.
The same measure for `CCNC(=O)c1ccc(OCc2c(-c3ccncc3)noc2C)nn1` [Example 109, 6-(5-Methyl-3-pyridin-4-yl-isoxazol-4-ylmethoxy)-pyridazine-3-carboxylic acid ethylamide]: 14.2 nM.
Regarding `Cc1onc(-c2ccc(F)cn2)c1COc1ccc(Cl)nn1` [Example 110, 3-Chloro-6-[3-(5-fluoro-pyridin-2-yl)-5-methyl-isoxazol-4-ylmethoxy]-pyridazine], the Ki was 1.6 nM.
Then `CCOC(=O)c1ccc(OCc2c(-c3ccc(F)cn3)noc2C)nn1` [Example 111, 6-[3-(5-Fluoro-pyridin-2-yl)-5-methyl-isoxazol-4-ylmethoxy]-pyridazine-3-carboxylic acid ethyl ester], with 1.2 nM; and `Cc1onc(-c2ccc(F)cn2)c1COc1ccc(C(=O)NC(C)(C)CO)nn1` [Example 112, 6-[3-(5-Fluoro-pyridin-2-yl)-5-methyl-isoxazol-4-ylmethoxy]-pyridazine-3-carboxylic acid (2-hydroxy-1,1-dimethyl-ethyl)-amide], with 1.5 nM.
Then `Cc1onc(-c2ccc(Cl)cn2)c1COc1ccc(C(=O)O)nn1` [Example 113, 6-[3-(5-Chloro-pyridin-2-yl)-5-methyl-isoxazol-4-ylmethoxy]-pyridazine-3-carboxylic acid], with 2.1 nM; and `Cc1onc(-c2ccncn2)c1COc1ccc(C(=O)NCCO)nn1` [Example 114, 6-(5-Methyl-3-pyrimidin-4-yl-isoxazol-4-ylmethoxy)-pyridazine-3-carboxylic acid (2-hydroxy-ethyl)-amide], with 4.7 nM; and `Cc1onc(-c2ccncn2)c1COc1ccc(C(=O)NC(C)(C)CO)nn1` [Example 115, 6-(5-Methyl-3-pyrimidin-4-yl-isoxazol-4-ylmethoxy)-pyridazine-3-carboxylic acid (2-hydroxy-1,1-dimethyl-ethyl)-amide], with 14.8 nM.
Then `Cc1onc(-c2cccc(F)c2)c1CNc1ccc(C(=O)NCC(F)(F)F)nn1` [Example 118, 6-{[3-(3-Fluoro-phenyl)-5-methyl-isoxazol-4-ylmethyl]-amino}-pyridazine-3-carboxylic acid (2,2,2-trifluoro-ethyl)-amide], with 28.9 nM; and `Cc1onc(-c2ccc(Cl)cn2)c1CNc1ccc(C(=O)NC(C)(C)CO)nn1` [Example 119, 6-{[3-(5-Chloro-pyridin-2-yl)-5-methyl-isoxazol-4-ylmethyl]-amino}-pyridazine-3-carboxylic acid (2-hydroxy-1,1-dimethyl-ethyl)-amide], with 7.3 nM.
`CC(C)NC(=O)c1ccc(OCc2conc2-c2ccc(F)cc2)nn1` [Example 121, 6-[3-(4-Fluoro-phenyl)-isoxazol-4-ylmethoxy]-pyridazine-3-carboxylic acid isopropylamide]: the Ki came out at 27.6 nM.
The same measure for `O=C(NC1CCOCC1)c1ccc(OCc2conc2-c2ccc(F)cc2)nn1` [Example 122, 6-[3-(4-Fluoro-phenyl)-isoxazol-4-ylmethoxy]-pyridazine-3-carboxylic acid (tetrahydro-pyran-4-yl)-amide]: 34.7 nM; for `O=C(NC1CC1)c1ccc(OCc2conc2-c2ccccn2)nn1` [Example 124, 6-(3-Pyridin-2-yl-isoxazol-4-ylmethoxy)-pyridazine-3-carboxylic acid cyclopropylamide]: 31.5 nM.
